Measurements: patent US20250130239A1, “PROTEIN DEGRADER” (University of Dundee, priority 2021, published 2025)

How the values were obtained:
BromoTag-Brd2 = molecular target: T1, BromoTag-Brd2 (Homo sapiens, UniProt O60885+P40337, L387A); test: Recovery (washout) assay; type: cell-based
T1 construct: comprising residues 368-440 of human Brd4; Brd2 (endogenous protein, fusion partner in the same polypeptide); eGFP-P2A (upstream marker in the knock-in cassette) (N, cleaved yes); expressed in transfected cells; host or cells: HEK293, heterozygous CRISPR knock-in at the endogenous BRD2 locus
Method: Recovery Assay. A recovery assay was performed using 200 nM AGB1 over a 72 h period. This was performed in the genotype verified heterozygous BromoTag-Brd2 HEK293 cell line. Heterozygous BromoTag-Brd2 HEK293 cells were plated at a density of 5×10^5 cells per well of a six-well plate a day before initiating the recovery assay. On the experiment day, cells were washed with PBS before fresh DMEM was applied to contain either DMSO or AGB1 200 nM. During treatment, cells were kept at 37° C., 5% CO2, and 95% humidity. After three hours, the recovery and vehicle control condition cells were rewashed with PBS before fresh DMEM was applied absent 200 nM AGB1 or DMSO. As for the positive control condition, they were left with 200 nM AGB1 for the remainder of the treatment time.
Western Blotting. All cells were harvested on ice with RIPA lysis, and extraction buffer (ThermoFisher Scientific, 89901) supplemented with protease inhibitor cocktail (Merck, 11697498001) and Benzonase® Nuclease (Sigma, E1014) before being store at −20° C. prior to use. Total protein quantity was determined using the BCA protein assay (#23225, Pierce, Rockford, Illinois). Protein concentration was determined using the BCA assay (ThermoFisher Scientific, 23225). Samples were then prepared and loaded onto NuPAGE™ 4-12% Bis-Tris Midi gels (ThermoFisher Scientific, WG1403A), followed by the transfer of the proteins onto nitrocellulose membranes (EMD Millipore). The membranes were blocked for 1 h prior to incubation with the primary antibodies using 5% Milk TBST. Membranes were probed for Brd2 (Abcam, Ab139690, 1:1000), Brd3 (Abcam, Ab50818, 1:4000), Brd4 (Abcam, Ab128874, 1:1000) or our polyclonal Brd4^BD2 L387A antibody. […] All western blots were analysed for band intensities using Image Lab from Bio-Rad (LI-COR, Biosciences). The data extracted from these blots were then plotted and analysed using Prism (v. 8.2.0, GraphPad).

HEK293 cells = test: CellTiter-Glo cell viability assay, HEK293; type: cell-based, human; conditions: up to 10 μM; 48 h
[1] = molecular target: T2, PPM1H (Q9ULR3), BromoTag C-term (Homo sapiens, UniProt O60885+P40337, L387A); test: Degradation of BromoTag'ed PPM1H by AGB1; type: cell-based
T2 construct: comprising residues 368-440 of human Brd4; PPM1H (endogenous protein, fusion partner in the same polypeptide); expressed in transfected cells
Excerpt: Degradation of a variety of target proteins. […] We performed CRISPR knock-in of the BromoTag, as described, into the endogenous loci of five additional proteins. […] The target proteins of Table 6 are all different, are all known to have different cellular roles and function, intracellular expression, and distinctive turnover rates within cells.

T1 sequence (P40337 whole entry, other chains not shown, the tested form may be a part): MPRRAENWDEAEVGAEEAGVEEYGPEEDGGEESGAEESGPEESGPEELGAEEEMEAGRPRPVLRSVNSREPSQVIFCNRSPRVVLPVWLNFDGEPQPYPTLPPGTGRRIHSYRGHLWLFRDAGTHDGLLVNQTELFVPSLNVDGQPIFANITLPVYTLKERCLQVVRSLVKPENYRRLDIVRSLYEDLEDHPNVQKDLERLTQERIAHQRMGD
T2 sequence (P40337 whole entry, other chains not shown, the tested form may be a part): as above

For `CC[C@@H](C(=O)OCCOCCOCCOCC(=O)N[C@H](C(=O)N1C[C@H](O)C[C@H]1C(=O)NCc1ccc(-c2scnc2C)cc1)C(C)(C)C)[C@@H]1N=C(c2ccc(Cl)cc2)c2c(sc(C)c2C)-n2c(C)nnc21` (single isomer, unassigned) [AGB1 (46)], the “time after washout at which BromoTag-Brd2 protein levels recover” value (BromoTag-Brd2; 200 nM for 3 h, then washout) was 24 h, the “BromoTag-Brd2 level after 3 h treatment” value (BromoTag-Brd2; 200 nM, 3 h) was “complete depletion” and the “on-target degradation without washout” value (BromoTag-Brd2; 200 nM, no washout) was “complete and durable on-target degradation for up to 72 h”. For the same compound, the cytotoxicity (HEK293 cells) was “lack of cytotoxicity”, the Dmax [1] was over 95% and the pDC50 ([1]; BromoTag'ed PPM1H, C-term tag) was over 7.0.
